As a reminder, the IC50 is the concentration at which inhibition is half-maximal.

In one assay the target is T1, 5-HT1A receptor (Rattus norvegicus, UniProt P19327).
T1 sequence (P19327 1-422): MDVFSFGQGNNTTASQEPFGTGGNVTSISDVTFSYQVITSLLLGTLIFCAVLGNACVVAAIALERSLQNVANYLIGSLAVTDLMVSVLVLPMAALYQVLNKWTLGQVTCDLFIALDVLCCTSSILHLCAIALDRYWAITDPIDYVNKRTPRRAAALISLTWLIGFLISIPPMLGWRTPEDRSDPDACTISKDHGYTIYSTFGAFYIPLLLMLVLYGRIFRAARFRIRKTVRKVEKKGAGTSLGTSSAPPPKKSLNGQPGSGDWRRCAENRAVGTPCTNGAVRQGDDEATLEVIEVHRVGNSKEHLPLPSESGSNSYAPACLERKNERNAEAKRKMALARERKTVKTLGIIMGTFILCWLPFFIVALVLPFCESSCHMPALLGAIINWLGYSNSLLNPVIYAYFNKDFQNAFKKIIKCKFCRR
Briefly: Inhibition of 3H-8-OH-DPAT binding to serotonin 5-HT1A receptors in rat brain in vitro.
Details: not given
On the set-up: 5-HT1A receptors in membranes from rat brain minus cerebellum; from tissue; host or cells: rat brain minus cerebellum, membranes. The method, then: Inhibition of ^3 H-8-OH-DPAT Binding to Serotonin 5-HT1A Receptors in Rat Brain in vitro.
By this method the inhibition by drugs of the binding of the 5-HT1A agonist 3H-8-OH-DPAT (1 nM) to 5-HT1A receptors in membranes from rat brain minus cerebellum is determined in vitro . Accordingly, this is a test for affinity for the 5-HT1A receptor. The assay was performed as described by Hyttel et al., Drug Dev. Res. 1988, 15, 389-404.
In turn, `CC1(C)Cc2cccc(C3=CCN(CCCCN4CCN(C5CCCCC5)C4=O)CC3)c2O1` [Compound 10a, 1-Cyclohexyl-3-[4-[4-(2,3-dihydro-2,2-dimethylbenzofuran-7-yl)-1,2,3,6-tetrahydropyrid-1-yl]-1-butyl]-2-imidazolidinone] had an IC50 of 0.0012 µM.

The same assay, now with this note: 3H-8-OH-DPAT 1 nM; membranes from rat brain minus cerebellum; read-out: IC50, 3H 8-OH-DPAT binding.
For the molecule `CC1(C)COc2c(N3CCN(CCCCCCN4CCN(C5CCCC5)C4=O)CC3)cc(Cl)cc21` [Compound 2pp], the 50% inhibitory concentration (IC50) is 0.02 µM.
Still for that read-out and setting: next, `CC1(C)Cc2c(N3CCN(CCCN4CCN(C5CCCCC5)C4=O)CC3)ccc(Cl)c2O1` [Compound 2qq]: 0.3 µM.
Still for that read-out and setting: next, `O=C1N(CCN2CCN(c3cccc4occc34)CC2)CCN1C1CCCC1` [Compound 2s, 1-[2-(4-Benzofuran-4-yl-1-piperazinyl)ethyl]-3-cyclopentyl-2-imidazolidinone]: 0.032 µM; `NC(=O)c1cc2c(N3CCN(CCN4CCN(C5CCCC5)C4=O)CC3)cccc2o1` [Compound 8a, 4-[4-[2-(3-Cyclopentyl-2-imidazolidinon-1-yl)ethyl]-1-piperazinyl]-2-benzofuranylcarboxamide]: 0.0039 µM; `O=C1N(CCN2CCN(c3cc(Cl)cc4cc(-c5ccccc5)oc34)CC2)CCN1C1CCCC1` [Compound 2ii, 1-[2-[4-(5-Chloro-2-phenylbenzofuran-7-yl)-1-piperazinyl]ethyl]-3-cyclopentyl-2-imidazolidinone]: 0.3 µM.
Consider `CC1(C)Cc2cc(F)cc(N3CCN(CCCCN4CCN(c5ccc(F)cc5)C4=O)CC3)c2O1` [Compound 2ll, 1-[4-[4-(2,3-Dihydro-2,2-dimethyl-5-fluorobenzofuran-7-yl)-1-piperazinyl]-1-butyl]-3-(4-fluorophenyl)-2-imidazolidinone], for which the concentration for half-maximal inhibition (IC50) was 0.01 µM.
The same measure, in the same setting: next, `CC1(C)Cc2cccc(N3CCN(CCCCN4CCN(C56CC7CC(CC(C7)C5)C6)C4=O)CC3)c2O1` [Compound 2gg, 1-Adamantyl-3-[4-[4-(2,3-dihydro-2,2-dimethylbenzofuran-7-yl)-1-piperazinyl]-1-butyl]-2-imidazolidinone]: 0.0028 µM; `O=c1n(CCCCN2CCN(c3cccc4c3OCCO4)CC2)c2ccccc2n1-c1ccc(F)cc1` [Compound 13a, 1-[4-[4-(1,4-Benzodioxan-5-yl)-1-piperazinyl]-1-butyl]-3-(4-fluorophenyl)-2(3H)-benzimidazolone]: 0.022 µM; `CC1(C)Cc2cccc(N3CCN(CCCN4CCN(C5CCCCC5)C4=O)CC3)c2O1` [Compound 2kk, 1-Cyclohexyl-3-[3-[4-(2,3-dihydro-2,2-dimethylbenzofuran-7-yl)-1-piperazinyl]-1-propyl]-2-imidazolidinone]: 0.0057 µM.
The same measure, in the same setting: in the case of `CCOC(=O)c1cc2c(N3CCN(CCN4CCN(C5CCCC5)C4=O)CC3)cccc2o1` [Compound 2cc, Ethyl [4-[4-[2-(3-cyclopentyl-2-imidazolidinon-1-yl)ethyl]-1-piperazinyl]-2-benzofuranyl] carboxylate] it was 0.083 µM.
On the same count and under the same terms, in the case of `O=C1N(CCN2CCN(c3cccc4cnsc34)CC2)CCN1c1ccccc1` [Compound 2x, 1-[2-[4-(1,2-Benzisothiazol-7-yl)-1-piperazinyl]ethyl]-3-phenyl-2-imidazolidinone] it was 0.075 µM.
`O=c1n(CCN2CCN(c3cccc4c3OCCO4)CC2)c2ccccc2n1-c1ccc(F)cc1` [Compound 12a, 1-[2-[4-(1,4-Benzodioxan-5-yl)-1-piperazinyl]ethyl]-3-(4-fluorophenyl)-2(3H)-benzimidazolone]: the 50% inhibitory concentration (IC50) is 0.036 µM.
Consider `CC1(C)Cc2c(cccc2N2CCN(CCCN3CCN(C4CCCCC4)C3=O)CC2)O1` [Compound 14d], for which the IC50 is 0.022 µM.
For `O=c1n(CCN2CCN(c3cccc4c3OCCO4)CC2)ccn1-c1ccccc1` [Compound 5b, 1-[3-[4-(1,4-Benzodioxan-5-yl)-1-piperazinyl]-ethyl]-1,3-dihydro-3-phenyl-2-imidazolone], the IC50 stood at 0.012 µM.
